From patent US8785471B2, “Pharmaceutical composition containing ferulic acid and matrine compounds, the preparation and the use thereof” (Qingdao Qiyuan Bio-Technologies Co., Ltd., priority 2008, dated 2014)
Like-named read-outs stand apart in the source and are kept apart here.

What was measured:
[1] = test system: type I collagen content of hepatic stellate cells; assay: Type I collagen content of hepatic stellate cells (ELISA kit); assay type: cell-based, rats; settings: 50 μmol/l, HSC supernatant; mean ± SD
Experimental: (§1) Materials and reagents: ELISA kit for rats type I collagen, trypsin, fetal bovine serum, etc.
(§2) Methods: Revived hepatic stellate cell (HSC) seeds were placed in a 100 ml plastic incubation flask and incubated in a CO2 incubator (inside 5% CO2, 95% humidity). The medium was discarded when the cells grew into a single layer. Digestion solution (5% trypsin) was added. The digestion solution was removed and centrifuged at 2200 rpm for 7 minutes. The supernatant was discarded, washed and centrifuged with DMEM incubation solution. The cells were suspended in a DMEM solution containing 20% fetal bovine serum, and the cell numbers were counted. The cell suspension was diluted with a DMEM solution and seeded in 96 well culture plate, each well having 100 μl diluted suspension. After 48 hours, the solution was removed and the cells were washed with a DMEM incubation solution containing 10% bovine serum to synchronize the cells at stable phrase. The cells were treated with testing compositions diluted in physiological saline (50 μmol/l). Each treatment tested 6 wells and repeated for 3 times. After 48 hours, incubation was terminated. […] The HSC absorbance at wavelength 570 nm was measured by microplate reader. […] The supernatant was obtained and the type I collagen content was measured according to the instructions in the type I collagen kit.

hepatic stellate cells = assay: Proliferation of hepatic stellate cells (MTT absorbance); assay type: cell-based, rats; settings: 50 μmol/l, 48 hours, 570 nm, mean ± SD
Experimental: as §1, §2

[2] = test system: quails of fat arteriosclerosis model; assay: Anti-atherosclerosis effect, aortic atherosclerosis degree of quails (pathological examination); assay type: in vivo; parameters: Total atherosclerosis score: scale not given here
From the text: (§3) Testing composition preparation: ferulic acid and oxymatrine were mixed in a mole ratio 1:1 to prepare a solution.
(§4) Methods: According to the method described in reference (Liu et al., 2005. Chinese journal of arteriosclerosis, 13(3): 305-308).
(§5) Test method: 140 male quails were selected and randomly separated into 7 groups: normal control group (healthy quails), modeling control group (fat arteriosclerosis model which is set up by the methods described in reference), positive control group (fat arteriosclerosis model is treated by luofatading 10 mg/kg), ferulic acid control group (tested with ferulic acid 40 mg/kg), large/medium/small dosage testing groups ([…], of testing compositions). Except the normal control group, all the other 6 groups were fat arteriosclerosis models.
(§6) The quails were daily intragastric administrated with testing compositions or controls once per day for consecutive four weeks. The fourth weekend after administration, the content of serum lipid from 10 quails of each group was detected. In the end, pathological examination was conducted on the surviving quails.

[3] = test system: quails of fat arteriosclerosis model; assay: Anti-atherosclerosis effect, serum TC and TG in quails; assay type: in vivo; settings: quail serum, four weeks
From the text: as §3, §4, §5, §6
Method to detect the content of serum lipid: at the end of the 4th week after administration, feeding was stopped for 12 hours. 2 ml blood was collected from jugular vein. The serum was separated. The contents of serum cholesterol (TC) and triglyceride (TG) were measured according to an enzymatic method.

mice [4] = assay: Analgesic effect, acetic acid writhing test in mice; assay type: in vivo; settings: intragastric 20 mg/kg for 3 days, 0.6% acetic acid ip, writhing within 15 minutes
Experimental: Method: Healthy mice were selected, each group containing 10 mice. The mice were intragastric administrated with 20 mg/kg testing compositions or control compositions for consecutive 3 days. 30 minutes after the last administration, the mice were intra-peritoneally (ip) injected with 10 ml/kg of 0.6% acetic acid. The writhing numbers of the mice within 15 minutes were recorded. The analgesic percentage was calculated.
Analgesic percentage(%)=(writhing numbers of blank control group−writhing numbers of testing group)/writhing numbers of blank control group×100%

mice [5] = assay: Anti-inflammatory effect, xylene ear swelling in mice; assay type: in vivo; settings: xylene on right ear, ear coated with 1% composition, 30 minutes later
Experimental: Healthy mice were selected, each group containing 10 mice. After weighing and marking, the right ear of the mice was contacted with xylene cotton ball for 5 seconds, leaving the left ear as control. 10 minutes after proinflammatory treatment, the right ear was coated with testing compositions (1%), control ingredients (individual ferulic acid or oxymatrine) or blank control (physiological saline). 30 minutes later, the mice was sacrificed by cervical dislocation. The same volume of tissues was collected from left ear (control) and fight ear (treated with xylene) by hole puncher (diameter: 6 mm), and weighed. The ear swelling percentage was calculated. Ear swelling percentage (%)=(Weight of right ear−Weight of left ear)/Weight of left ear×100%

mice [6] = assay: Mice gastrointestinal motility, carbon powder propulsion; assay type: in vivo; settings: 3 days
From the text: Materials and reagents: oxymatrine injection (Xinhua Inc., batch No.: 0306003), neostigmine methylsulfate injection (Tianfu Inc., batch No.: 0404131), atropine sulfate injection (Tianfu Inc., batch No.: 0409271), morphine sulfate controlled-release tablets (Mengdi Inc., batach No.: 04082312).
Animals and feeding environment: healthy SPF grade Kunming mice, half male, weight 18-22 g, provided by Lvye Inc., certificate No.: SYXK(LU)20030020. Every 10 mice were placed in one cage. Mice feeding was provided by Shandong experimental animal center. Experimental mice fed in barrier system with filtered air, at the room temperature of 18-22° C. and humidity at 50-60%, with 12 hours light radiation per day.
Methods: The mice were intragastric administrated with testing compositions or controls for consecutive 3 days. Before the last administration, the mice were stopped feeding and supplied with water for 16 hours. 30 minutes after the last administration, the mice were intragastric administrated with 0.2 ml 5% activated carbon suspension. 20 minutes later, the mice were sacrificed by cervical dislocation. The abdominal cavity was opened and bowel was collected from pylorus to ileocecal. The bowel was placed on a tray and straightened. The total length of small intestine was measured, as well as the advanced distance of carbon powder in the intestine from pylorus. The percentage of carbon powder propulsion was calculated by the following formula: percentage of carbon powder propulsion=advanced distance of carbon powder/total length of small intestine×100%

mice [7] = assay: Acute toxicity in mice; assay type: in vivo; settings: 10 mice, 72 hours
Experimental: Methods: Healthy mice were selected, each group containing 10 mice. The mice were intragastric administrated with testing compositions or controls once; and observed for 72 hours. The deaths were recorded.

patients with rash = assay: Effect on rash in patients; assay type: in vivo; settings: 10 patients, 1% applied on rash area, after 10 minutes
Experimental: Patient selection: 18-25 years old of either gender with rash at both body sides. Each composition was tested on 10 patients. Test was carried out with single-blind and self control. 1% composition or control was applied on rash area at left side of the body, and physiological saline was applied on rash area at the right side. After 10 minutes, the effects were evaluated.
Effect evaluation: Obviously effective if both rash and itching feeling disappear; effective if parts of rash and itching feeling disappear; invalid if both rash and itching feeling keep unchanged.

[8] = molecular target: T1, blood acetylcholinesterase (Rattus norvegicus, UniProt P37136); assay: Anticholinesterase effect on rat blood acetylcholinesterase; assay type: biochemical, rats
T1 construct: 0.05 ml each diluted composition was pipetted into 0.5 ml diluted rats blood; from tissue; host or cells: rat whole blood, anticoagulated, diluted 10 times with physiological saline
T1 sequence (P37136 32-614): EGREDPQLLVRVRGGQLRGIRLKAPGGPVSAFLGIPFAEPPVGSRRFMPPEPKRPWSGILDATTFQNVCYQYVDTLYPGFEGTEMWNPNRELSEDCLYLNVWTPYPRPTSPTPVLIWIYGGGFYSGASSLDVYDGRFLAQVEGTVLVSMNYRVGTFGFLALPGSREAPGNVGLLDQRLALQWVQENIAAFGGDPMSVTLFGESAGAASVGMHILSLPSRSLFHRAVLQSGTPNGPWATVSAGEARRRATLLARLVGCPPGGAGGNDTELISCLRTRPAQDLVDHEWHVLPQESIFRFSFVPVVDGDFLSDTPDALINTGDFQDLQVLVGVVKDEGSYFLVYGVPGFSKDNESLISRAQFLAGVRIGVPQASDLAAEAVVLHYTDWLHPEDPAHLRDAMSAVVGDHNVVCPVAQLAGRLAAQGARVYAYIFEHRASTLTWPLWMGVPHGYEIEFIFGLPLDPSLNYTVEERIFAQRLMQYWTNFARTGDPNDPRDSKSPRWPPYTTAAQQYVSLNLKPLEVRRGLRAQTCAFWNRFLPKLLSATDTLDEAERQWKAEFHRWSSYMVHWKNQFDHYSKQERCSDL
Experimental: Methods: 5 ml blood was collected from healthy rats, stored in tubes containing anticoagulants and diluted 10 times with physiological saline (ready for use). The testing compositions were diluted with physiological saline to 0, 5, 10, 20, 40, 80, 160, 320, 640 mg/l concentrations, respectively. 0.05 ml each diluted composition was pipetted into 0.5 ml diluted rats blood, mixed thoroughly and incubated at 37° C. for 1 hour. The activity of blood acetylcholinesterase was measured according to the acetylcholinesterase kit. The half inhibitory concentration (IC50) was calculated.

[9] = test system: rheumatoid arthritis patients; settings: 30 patients, 200 mg tablets daily, 5 days
Experimental: Testing composition preparation: The gel containing ferulic acid and matrine (mole ratio 1:1) were prepared according to a pharmaceutical method.
Methods: 30 pairs of rheumatoid arthritis patients; 30 patients participating in the control group with daily administration of 200 mg naproxen tablets; 30 patients participating in the testing group with daily application on the affected parts of the testing gel containing ferulic acid and matrine. Both groups were administered for consecutive 5 days.
Effect observations: obviously effective if both swelling and aches disappear; effective if aches disappear with limited swelling; invalid if both swelling and aches exist.

`COc1cc(/C=C\C(=O)O)ccc1O` [Ferulic acid, 4-hydroxy-3-methoxy cinnamic acid] was tested, and the “Type I collagen content” value [1] was 64.36 ± 11.22 µg/L, the Average absorbance (hepatic stellate cells) was 0.42 ± 0.24 and the “Numbers of quails in aortic atherosclerosis degree 0” value ([2]; 40 mg/kg) was 1. The “Numbers of quails in aortic atherosclerosis degree 1” value ([2]; 40 mg/kg) was 4, the “Numbers of quails in aortic atherosclerosis degree 2” value ([2]; 40 mg/kg) was 6 and the “Numbers of quails in aortic atherosclerosis degree 3” value ([2]; 40 mg/kg) was 3. The “Numbers of quails in aortic atherosclerosis degree 4” value ([2]; 40 mg/kg) was 0, the Total atherosclerosis score ([2]; 40 mg/kg) was 25 and the TC ([3]; 40 mg/kg intragastric daily) was 16.88 ± 6.31 mmol/L. The TG ([3]; 40 mg/kg intragastric daily) was 3.52 ± 0.73 mmol/L, the Analgesic percentage (mice [4]) was 18.30% and the Ear swelling percentage (mice [5]) was 164.6%. The “Percentage of carbon powder propulsion (mean ± SD, %)” value (“Percentage … (mean ± SD, %)” below) (mice [6]; intragastric 20 mg/kg) was 54.33 ± 10.22%, the Death cases (mice [7]; single intragastric 1000 mg/kg) was 0 and the “Effective (number of patients)” value (patients with rash) was 3. The “Invalid (number of patients)” value (patients with rash) was 7.

With `CC[C@H](C)C(=O)O[C@H]1C[C@@H](C)C=C2C=C[C@H](C)[C@H](CC[C@@H]3C[C@@H](O)CC(=O)O3)[C@H]21` [Luofatading] the “Numbers of quails in aortic atherosclerosis degree 0” value ([2]; 10 mg/kg) was 0, the “Numbers of quails in aortic atherosclerosis degree 1” value ([2]; 10 mg/kg) was 6 and the “Numbers of quails in aortic atherosclerosis degree 2” value ([2]; 10 mg/kg) was 8. The “Numbers of quails in aortic atherosclerosis degree 3” value ([2]; 10 mg/kg) was 2, the “Numbers of quails in aortic atherosclerosis degree 4” value ([2]; 10 mg/kg) was 0 and the Total atherosclerosis score ([2]; 10 mg/kg) was 28. The TC ([3]; 10 mg/kg intragastric daily) was 10.19 ± 2.07 mmol/L and the TG ([3]; 10 mg/kg intragastric daily) was 1.68 ± 0.36 mmol/L.

Compound `O=C1CCC[C@@H]2[C@H]3CCCN4CCC[C@@H](CN12)[C@@H]34` [Matrine, matrine] has a Death cases (mice [7]; single intragastric 500 mg/kg) of 10.

For `CN(C)C(=O)Oc1cccc([N+](C)(C)C)c1` [Neostigmine, neostigmine], the IC50 ([8]; diluted rat blood, 37° C., 1 hour, read-out: IC50 (converted)) was 1.64 mM and the “Percentage … (mean ± SD, %)” value (mice [6]; intragastric 4 mg/kg) was 68.55 ± 4.80 %.

For `O=C1CCC[C@@H]2[C@H]3CCC[N+]4([O-])CCC[C@@H](CN12)[C@@H]34` (stereo partly drawn) [Oxymatrine, oxymatrine], the “Type I collagen content” value [1] was 63.42 ± 9.76 µg/L, the Average absorbance (hepatic stellate cells) was 0.39 ± 0.17 and the IC50 [8] was 2.78 mM. For the same compound, the Analgesic percentage (mice [4]) was 29.98%, the Ear swelling percentage (mice [5]) was 133.4% and the “Percentage … (mean ± SD, %)” value (mice [6]; intragastric 10 mg/kg) was 58.85 ± 13.22%. For the same compound, the “Percentage … (mean ± SD, %)” value (mice [6]; intragastric 20 mg/kg) was 67.49 ± 11.68 % and the “Effective (number of patients)” value (patients with rash) was 10.

`O=C1C=CC[C@@H]2[C@H]3CCCN4CCC[C@@H](CN12)[C@@H]34` [Sophocarpine, sophocarpine] gave a Death cases (mice [7]; single intragastric 500 mg/kg) of 10.

With `COc1ccc2cc([C@H](C)C(=O)O)ccc2c1` [naproxen] the Effective cases [9] was 11 cases, the Obviously effective cases [9] was 12 cases and the Total effective percentage [9] was 76.7%.
